Assay results published in US20080085889A1, “Amidomethyl-Substituted 1-(Carboxyalkyl) Cyclopentyl-Carbonylamino-Benzazepine-N-Acetic Acid Compounds, Process and Intermediate Products for Their Preparation and Pharmaceutical Compositions Containing Them” (SOLVAY PHARMACEUTICALS GmbH, priority 2003, published 2008).
Where two headings read alike, the source gives them in different places.

Molecular target: T1, hSEP (sol hu)(his)6; His6-tagged hSEP ectodomain (Homo sapiens, UniProt Q495T6)
T1 construct: His6-tagged hSEP ectodomain; His6; purchased Innogenetics, Ghent, Belgium
T1 sequence (Q495T6 49-779 limits assumed): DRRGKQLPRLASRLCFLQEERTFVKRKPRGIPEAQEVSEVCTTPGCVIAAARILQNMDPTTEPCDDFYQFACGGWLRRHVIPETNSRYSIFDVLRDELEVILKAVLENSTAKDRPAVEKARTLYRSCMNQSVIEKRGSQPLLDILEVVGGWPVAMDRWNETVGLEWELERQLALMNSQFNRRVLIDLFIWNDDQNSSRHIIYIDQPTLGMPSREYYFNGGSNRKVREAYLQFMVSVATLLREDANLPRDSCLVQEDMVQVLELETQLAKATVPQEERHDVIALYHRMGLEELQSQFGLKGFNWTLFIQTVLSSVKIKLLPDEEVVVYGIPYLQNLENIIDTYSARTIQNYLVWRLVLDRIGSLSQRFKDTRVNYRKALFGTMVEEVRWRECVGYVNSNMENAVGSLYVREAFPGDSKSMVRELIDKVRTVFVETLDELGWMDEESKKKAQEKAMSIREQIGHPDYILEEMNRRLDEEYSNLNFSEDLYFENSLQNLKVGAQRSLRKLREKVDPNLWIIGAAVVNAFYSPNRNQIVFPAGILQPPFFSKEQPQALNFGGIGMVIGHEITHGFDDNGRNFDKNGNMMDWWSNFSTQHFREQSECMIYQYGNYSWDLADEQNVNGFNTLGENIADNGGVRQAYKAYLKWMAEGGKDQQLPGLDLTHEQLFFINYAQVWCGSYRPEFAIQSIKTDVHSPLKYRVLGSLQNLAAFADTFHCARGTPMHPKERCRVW
Assay: Enzymatic breakdown of CNP and VIP by hSEP and its inhibition, in vitro, HPLC
Type: biochemical
Method: The inhibition of the enzymatic breakdown of CNP and VIP by the compounds used according to the invention was measured in an enzymatic in vitro assay according to the following protocol:
All test compounds were dissolved in DMSO at 10 mM and further diluted with assay buffer.
80 μl of assay buffer, 10 μl of enzyme working solution (NEP or hSEP) and 10 μl of peptide stock solution (VIP or CNP) were mixed in an Eppendorf vial and incubated for 120 min. at 37° C. The enzymatic reaction was subsequently terminated by heating to 95° C. for 5 min. After centrifugation (Heraeus Biofuge B, 3 min) the supernatant was subjected to HPLC.
70 μl of assay buffer, 10 μl of enzyme working solution (NEP or hSEP) and 10 μl of a test compound solution were mixed in an Eppendorf vial and preincubated at 37° C. for 15 minutes. Then, 10 μl of peptide stock solution (VIP or CNP) was added and the reaction mixture was incubated at 37° C. for 60 min. to allow enzymatic hydrolysis. The enzymatic reaction was subsequently terminated by heating to 95° C. for 5 min. After centrifugation (Heraeus Biofuge B, 3 min) the supernatant was subjected to HPLC. In order to separate the remaining substrate from the cleavage products, a reversed phase HPLC technique with a CC 125/4 Nucleosil 300/5 C18 RP column and a CC 8/4 Nucleosil 100/5 C18 precolumn (Macherey-Nagel, Düren, Germany) was used. 60 μl of the reaction samples were injected into the HPLC and the column was eluted at a flow rate of 1 ml/min with the following gradient:
All peptides were detected by absorbance at 214 nm (UV spectroscopy). The percentage (=%) of hydrolysis was calculated on the basis of the peak area of the undegraded peptide for an enzyme containing sample Y in correlation to a sample containing the same concentration of peptide without enzyme (blank) by the following equation: % hydrolysis=100*(blank−Y)
Basis of the calculation of % inhibition is the peak area of the undegraded peptide (VIP or CNP) for an inhibitor containing sample X in comparison to samples containing only peptide (blank) or peptide and enzyme without inhibitor (control) according to the following equation: % inhib=100*(X−control)/(blank−control)
All samples were run in duplicate and mean values were used. A solvent control (0.1% DMSO) was added to each assay run. CNP and VIP were cleaved by NEP and hSEP in vitro.

{(3S)-3-[({1-[(2″rel1″)-2-ethoxycarbonyl)-4-(isopropylamino)-4-oxobutyl]cyclopentyl}-carbonyl)amino]-2-oxo-2,3,4,5-tetrahydro-1H-1-benzazepin-1-yl}acetic acid [Example 4]
IC50 (substrate CNP (32-53), read-out: inhibition of breakdown of CNP by hSEP, IC50): 1 nM
IC50 (substrate VIP, read-out: inhibition of breakdown of VIP by hSEP, IC50): 3.1 nM
